Assay results reported in US8895743B2, “Methysergide derivatives” (Map Pharmaceuticals, Inc., priority 2012, dated 2014).

Key:
Somatostatin (SST1~SSTS) = assay: GTPγ[35S] assays, somatostatin receptors; assay type: biochemical; settings: CHO-K1 human receptor membranes
Method: (§1) Receptor agonist/[…] assays were performed using 2-CF3-sergide. Table 1 summarizes the cell lines (CHO-K1/HEK293 transfected with relevant human receptor) and the assays performed to detect any agonist or antagonist activity.
(§2) GTPγS studies were conducted to monitor agonist activity for 8′OH-2CF3-dihydroergotamine (8′OH-2CF3-DHE) against the receptors indicated in Table 1 above. Reagents used were the following: Assay buffer (20 mM HEPES, pH 7.4; 100 mM NaCl; 10 μg/mL saponin; 30 mM MgCl2); Membranes (recombinant human receptor membrane extracts were thawed on ice and diluted in assay buffer to give 1000 μg/mL ([…]) and kept on ice); GDP (diluted in assay buffer to give 30 μM solution (3 μM final concentration); beads (PVT-WGA (Amersham, RPNQ001), diluted in assay buffer at 25 mg/mL (0.25 mg/10 μL)); GTPγ^35S (Perkin Elmer, NEG030X), diluted in assay buffer to give 0.1 nM (final concentration); and ligand (agonist/antagonist diluted in assay buffer).
(§3) Membranes were mixed with GDP (1:1) and incubated for at least 15 minutes on ice. In parallel GTPγ^35S was mixed with the beads (1:1) just before starting the reaction. […] The plates were then centrifuged for 10 minutes at 2000 rpm and incubated at room temperature for 1 hour and counted for 1 min/well with a Perkin Elmer TopCount reader.

Opioid (OP1/OP2/OP3) = assay: GTPγ[35S] assays, opioid receptors; assay type: biochemical; settings: CHO-K1 human receptor membranes
Method: as §1, §2, §3

Serotonin 5-HT1A = biological target: T1, Serotonin 5-HT1A (Homo sapiens, UniProt P08908); assay: GTPγ[35S] assay, serotonin 5-HT1A; assay type: biochemical
T1 construct: expressed in transfected cells; host or cells: CHO-K1 (membrane extracts)
Method: as §1, §2, §3

Serotonin 5-HT1B = biological target: T2, Serotonin 5-HT1B (Homo sapiens, UniProt P28222); assay: GTPγ[35S] assay, serotonin 5-HT1B; assay type: biochemical; settings: CHO-K1 human receptor membranes, agonist mode; read-out: Activity (Agonism: EC50), 5-HT1B
T2 construct: expressed in transfected cells; host or cells: CHO-K1 (membrane extracts)
Method: as §1, §2, §3

Adrenergic α1A = biological target: T3, Adrenergic α1A (Homo sapiens, UniProt P35348); assay: Aequorin agonist/antagonist assay, adrenergic α1A; assay type: cell-based; settings: CHO-K1 mAeq, human receptor, antagonist mode; read-out: Activity (Antagonism: IC50), Adrenergic a1A
T3 construct: expressed in transfected cells; host or cells: CHO-K1 mAeq
Method: as §1
(§4) Aequorin assays were conducted to monitor activity for 8′OH-2CF3-dihydroergotamine (8′OH-2CF3-DHE) against the receptors indicated in Table 1 above (except for mGlu3 and mGlu5). CHO-K1 cells coexpressing mitochondrial apoaequorin and the recombinant human receptor of interest were grown to mid-log phase in culture media without antibiotics and then detached with PBS-EDTA, centrifuged and resuspended in assay buffer (DMEM/HAM's F12 with HEPES, without phenol red+0.1% BSA, protease free) at a concentration of 1×10^6 cell/mL. […]
(§5) 50 μL of the cell suspension was mixed with 50 μL of test or reference agonist in a 96-well plate. The resulting emission of light was recorded using Hamamatsu Functional Drug Screening System 6000 (FDSS 6000) luminometer. […]
(§6) To standardize the emission of recorded light (and determine of the “100% signal”) across plates and across different experiments, some wells contained 100 μM digitonin or a saturating concentration of ATP (20 μM).

Adrenergic α2B = biological target: T4, Adrenergic α2B (Homo sapiens, UniProt P18089); assay: GTPγ[35S] assay, adrenergic α2B; assay type: biochemical; settings: CHO-K1 human receptor membranes, antagonist mode; read-out: Activity (Antagonism: IC50), Adrenergic a2B
T4 construct: expressed in transfected cells; host or cells: CHO-K1 (membrane extracts)
Method: as §1, §2, §3

mGlu7 = biological target: T5, mGlu7 (Homo sapiens, UniProt Q14831); assay: cAMP HTRF assay, mGluR7; assay type: cell-based; settings: CHO-K1, human receptor, agonist mode; read-out: Activity (Agonism: EC50), mGlu7
T5 construct: expressed in transfected cells; host or cells: CHO-K1
Method: as §1
(§7) cAMP HTRF (Gs) studies were conducted to monitor activity for 8′OH-2CF3-dihydroergotamine (8′OH-2CF3-DHE) against the receptors indicated in Table 1 above. […] Lysis buffer was added and after a 1 hour incubation, cAMP concentrations was determined according to the manufacturer specification with the HTRF kit. […] Lysis buffer was added and after a 1 hour incubation, cAMP concentrations were determined according to the manufacturer specification, with the HTRF kit.
(§8) cAMP HTRF (Gi) studies were conducted to monitor activity for 8′OH-2CF3-dihydroergotamine (8′OH-2CF3-DHE) against the receptors indicated in Table 1 above. […] Lysis buffer was added and after a 1 hour incubation, cAMP concentrations was determined according to the manufacturer specification with the HTRF kit. […] Lysis buffer was added and after a 1 hour incubation, cAMP concentrations were determined according to the manufacturer specification, with the HTRF kit.

Serotonin 5-HT1F = biological target: T6, Serotonin 5-HT1F (Homo sapiens, UniProt P30939); assay: cAMP HTRF assay, serotonin 5-HT1F; assay type: cell-based; settings: CHO-K1, human receptor, agonist mode; read-out: Activity (Agonism: EC50), 5-HT1F
T6 construct: expressed in transfected cells; host or cells: CHO-K1
Method: as §1, §7, §8

Adrenergic α2C = biological target: T7, Adrenergic α2C (Homo sapiens, UniProt P18825); assay: GTPγ[35S] assay, adrenergic α2C; assay type: biochemical; settings: CHO-K1 human receptor membranes, antagonist mode; read-out: Activity (Antagonism: IC50), Adrenergic a2C
T7 construct: expressed in transfected cells; host or cells: CHO-K1 (membrane extracts)
Method: as §1, §2, §3

Adrenergic α2A = biological target: T8, Adrenergic α2A (Homo sapiens, UniProt P08913); assay: GTPγ[35S] assay, adrenergic α2A; assay type: biochemical; settings: CHO-K1 human receptor membranes, antagonist mode; read-out: Activity (Antagonism: IC50), Adrenergic a2A
T8 construct: expressed in transfected cells; host or cells: CHO-K1 (membrane extracts)
Method: as §1, §2, §3

Serotonin 5-HT2B = biological target: T9, Serotonin 5-HT2B (Homo sapiens, UniProt P41595); assay: Aequorin assay, serotonin 5-HT2B; assay type: cell-based
T9 construct: expressed in transfected cells; host or cells: CHO-K1 mAeq Gα16
Method: as §1, §4, §5, §6

Serotonin 5-HT1D = biological target: T10, Serotonin 5-HT1D (Homo sapiens, UniProt P28221); assay: GTPγ[35S] assay, serotonin 5-HT1D; assay type: biochemical; settings: CHO-K1 human receptor membranes, agonist mode; read-out: Activity (Agonism: EC50), 5-HT1D
T10 construct: expressed in transfected cells; host or cells: CHO-K1 (membrane extracts)
Method: as §1, §2, §3

Adrenergic α1D = biological target: T11, Adrenergic α1D (Homo sapiens, UniProt P25100); assay: Aequorin agonist/antagonist assay, adrenergic α1D; assay type: cell-based; settings: CHO-K1 mAeq, human receptor, antagonist mode; read-out: Activity (Antagonism: IC50), Adrenergic a1D
T11 construct: expressed in transfected cells; host or cells: CHO-K1 mAeq
Method: as §1, §4, §5, §6

Adrenergic α1B = biological target: T12, Adrenergic α1B (Homo sapiens, UniProt P35368); assay: Aequorin agonist/antagonist assay, adrenergic α1B; assay type: cell-based; settings: CHO-K1 mAeq, human receptor, antagonist mode; read-out: Activity (Antagonism: IC50), Adrenergic a1B
T12 construct: expressed in transfected cells; host or cells: CHO-K1 mAeq
Method: as §1, §4, §5, §6

Neurokinin (NK1/NK2/NK3) = assay: Aequorin assays, neurokinin receptors; assay type: cell-based; settings: CHO-AEQ, human receptors, antagonist mode; cell names OP2; read-out: Activity (Antagonism: IC50), OP2, in row Neurokinin (NK1/NK2/NK3)
Method: as §1, §4, §5, §6

Adenosine A2a = biological target: T13, Adenosine A2a (Homo sapiens, UniProt P29274); assay: cAMP HTRF assay, adenosine A2a; assay type: cell-based; settings: HEK293, human receptor
T13 construct: expressed in transfected cells
Method: as §1, §7, §8

Dopamine D3 = biological target: T14, Dopamine D3 (Homo sapiens, UniProt P35462); assay: GTPγ[35S] assay, dopamine D3; assay type: biochemical
T14 construct: expressed in transfected cells; host or cells: CHO-K1 (membrane extracts)
Method: as §1, §2, §3

Serotonin 5-HT3 = biological target: T15, Serotonin 5-HT3 (Homo sapiens, UniProt P46098); assay: Aequorin assay, serotonin 5-HT3; assay type: cell-based; settings: HEK-293 mAeq, human receptor, antagonist mode; read-out: Activity (Antagonism: IC50), 5-HT3
T15 construct: expressed in transfected cells; host or cells: HEK-293 mAeq
Method: as §1, §4, §5, §6

Calcitonin (CGRP) = biological target: T16, Calcitonin (CGRP) (Homo sapiens, UniProt O60894+Q16602); assay: Aequorin assay, CGRP receptor; assay type: cell-based; settings: CHO-AEQ
T16 construct: expressed in transfected cells; host or cells: CHO-AEQ
Method: as §1, §4, §5, §6

Dopamine D1 = biological target: T17, Dopamine D1 (Homo sapiens, UniProt P21728); assay: cAMP HTRF assay, dopamine D1; assay type: cell-based; settings: CHO-K1, human receptor, agonist mode; read-out: Activity (Agonism: EC50), D1
T17 construct: expressed in transfected cells; host or cells: CHO-K1
Method: as §1, §7, §8

Orexin (OX1/OX2) = assay: Aequorin assays, orexin receptors; assay type: cell-based; settings: CHO-AEQ, human receptors
Method: as §1, §4, §5, §6

Dopamine D4 = biological target: T18, Dopamine D4 (Homo sapiens, UniProt P21917); assay: GTPγ[35S] assay, dopamine D4; assay type: biochemical
T18 construct: expressed in transfected cells; host or cells: CHO-K1 (membrane extracts)
Method: as §1, §2, §3

[1] = tested on: Cholecystokinin (CCK1/CCK2); assay: Aequorin assays, cholecystokinin receptors; assay type: cell-based; settings: CHO-AEQ, human receptors
Method: as §1, §4, §5, §6

Dopamine D2L = biological target: T19, Dopamine D2L (Homo sapiens, UniProt P14416); assay: GTPγ[35S] assay, dopamine D2L; assay type: biochemical
T19 construct: expressed in transfected cells; host or cells: CHO-K1 (membrane extracts)
Method: as §1, §2, §3

[2] = tested on: VIP/PACAP (PAC1/VPAC/VPAC2); assay: Aequorin assays, VIP/PACAP receptors; assay type: cell-based; settings: CHO-AEQ, human receptors
Method: as §1, §4, §5, §6

Calcitonin (AM1/AM2) = assay: cAMP HTRF assays, calcitonin AM1/AM2 receptors; assay type: cell-based; settings: CHO-K1, human receptors
Method: as §1, §7, §8

Serotonin 5-HT2A = biological target: T20, Serotonin 5-HT2A (Homo sapiens, UniProt P28223); assay: Aequorin assay, serotonin 5-HT2A; assay type: cell-based; settings: CHO-K1 mAeq Gα16, human receptor, agonist mode; read-out: Activity (Agonism: EC50), 5-HT2A
T20 construct: expressed in transfected cells; host or cells: CHO-K1 mAeq Gα16
Method: as §1, §4, §5, §6

T9 sequence (P41595 whole entry): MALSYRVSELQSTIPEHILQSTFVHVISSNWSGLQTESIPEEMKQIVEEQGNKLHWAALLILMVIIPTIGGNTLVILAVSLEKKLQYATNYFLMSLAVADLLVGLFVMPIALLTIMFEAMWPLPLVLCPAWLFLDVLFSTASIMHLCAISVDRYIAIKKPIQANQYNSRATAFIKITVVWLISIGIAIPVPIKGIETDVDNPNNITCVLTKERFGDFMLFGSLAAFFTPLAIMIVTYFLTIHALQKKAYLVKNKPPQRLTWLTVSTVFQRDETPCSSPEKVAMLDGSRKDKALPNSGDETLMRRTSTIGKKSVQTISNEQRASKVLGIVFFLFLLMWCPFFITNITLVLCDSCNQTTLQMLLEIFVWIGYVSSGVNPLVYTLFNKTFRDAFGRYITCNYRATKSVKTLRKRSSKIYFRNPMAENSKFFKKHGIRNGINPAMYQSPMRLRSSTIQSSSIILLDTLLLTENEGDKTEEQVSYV
T18 sequence (P21917 whole entry): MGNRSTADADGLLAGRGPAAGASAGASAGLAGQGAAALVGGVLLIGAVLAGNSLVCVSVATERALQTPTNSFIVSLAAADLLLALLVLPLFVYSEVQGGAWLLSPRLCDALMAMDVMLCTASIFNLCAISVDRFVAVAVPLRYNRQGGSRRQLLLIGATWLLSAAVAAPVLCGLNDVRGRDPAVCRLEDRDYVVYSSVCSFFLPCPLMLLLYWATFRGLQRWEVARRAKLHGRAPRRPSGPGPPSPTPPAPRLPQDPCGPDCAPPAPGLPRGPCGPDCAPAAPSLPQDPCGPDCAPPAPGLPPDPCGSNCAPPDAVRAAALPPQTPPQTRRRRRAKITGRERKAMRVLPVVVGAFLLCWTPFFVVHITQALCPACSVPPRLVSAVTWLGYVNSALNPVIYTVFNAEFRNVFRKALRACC
T19 sequence (P14416 whole entry): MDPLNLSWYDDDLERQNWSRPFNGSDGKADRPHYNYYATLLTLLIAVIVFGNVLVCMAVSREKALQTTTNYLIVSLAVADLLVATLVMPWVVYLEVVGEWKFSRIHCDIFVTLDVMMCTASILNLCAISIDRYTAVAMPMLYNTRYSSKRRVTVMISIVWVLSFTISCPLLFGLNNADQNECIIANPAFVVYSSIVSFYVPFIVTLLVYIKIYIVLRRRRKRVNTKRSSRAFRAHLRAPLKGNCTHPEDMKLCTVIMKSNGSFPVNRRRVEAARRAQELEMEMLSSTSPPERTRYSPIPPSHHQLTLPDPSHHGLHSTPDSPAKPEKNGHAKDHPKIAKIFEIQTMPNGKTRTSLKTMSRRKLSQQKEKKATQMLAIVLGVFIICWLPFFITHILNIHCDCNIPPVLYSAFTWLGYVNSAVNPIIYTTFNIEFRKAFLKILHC
T14 sequence (P35462 whole entry): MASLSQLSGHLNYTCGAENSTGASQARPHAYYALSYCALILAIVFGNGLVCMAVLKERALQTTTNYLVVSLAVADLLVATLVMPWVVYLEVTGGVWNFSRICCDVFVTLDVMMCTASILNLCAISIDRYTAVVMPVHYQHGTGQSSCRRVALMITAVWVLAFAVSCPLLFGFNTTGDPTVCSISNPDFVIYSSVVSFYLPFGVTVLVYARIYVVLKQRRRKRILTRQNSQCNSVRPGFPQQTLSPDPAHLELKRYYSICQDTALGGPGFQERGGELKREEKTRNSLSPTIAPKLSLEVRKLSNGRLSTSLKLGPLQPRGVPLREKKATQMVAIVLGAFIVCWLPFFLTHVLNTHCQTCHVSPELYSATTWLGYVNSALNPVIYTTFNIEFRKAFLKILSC
T1 sequence (P08908 whole entry): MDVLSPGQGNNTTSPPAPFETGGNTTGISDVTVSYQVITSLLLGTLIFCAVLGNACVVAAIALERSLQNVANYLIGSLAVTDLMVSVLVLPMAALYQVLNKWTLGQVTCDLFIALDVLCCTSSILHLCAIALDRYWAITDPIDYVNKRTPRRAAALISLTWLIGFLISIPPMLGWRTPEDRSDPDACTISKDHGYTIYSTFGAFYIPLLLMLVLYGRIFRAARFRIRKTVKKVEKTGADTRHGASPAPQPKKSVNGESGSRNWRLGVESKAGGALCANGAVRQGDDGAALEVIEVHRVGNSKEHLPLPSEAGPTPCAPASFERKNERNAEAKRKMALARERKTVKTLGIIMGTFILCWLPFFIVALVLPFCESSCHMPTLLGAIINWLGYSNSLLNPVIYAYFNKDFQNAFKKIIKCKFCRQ
T10 sequence (P28221 whole entry): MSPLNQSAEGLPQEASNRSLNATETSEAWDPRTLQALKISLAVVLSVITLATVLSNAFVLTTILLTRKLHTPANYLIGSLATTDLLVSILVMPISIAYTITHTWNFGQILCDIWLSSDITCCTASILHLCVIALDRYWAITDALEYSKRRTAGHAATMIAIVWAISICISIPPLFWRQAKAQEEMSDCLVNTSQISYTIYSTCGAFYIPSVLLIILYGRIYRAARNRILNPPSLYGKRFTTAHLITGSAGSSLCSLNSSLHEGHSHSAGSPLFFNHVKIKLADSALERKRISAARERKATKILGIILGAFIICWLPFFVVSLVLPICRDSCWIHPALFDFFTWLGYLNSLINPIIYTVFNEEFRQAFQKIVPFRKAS
T16 sequence (Q16602 23-461): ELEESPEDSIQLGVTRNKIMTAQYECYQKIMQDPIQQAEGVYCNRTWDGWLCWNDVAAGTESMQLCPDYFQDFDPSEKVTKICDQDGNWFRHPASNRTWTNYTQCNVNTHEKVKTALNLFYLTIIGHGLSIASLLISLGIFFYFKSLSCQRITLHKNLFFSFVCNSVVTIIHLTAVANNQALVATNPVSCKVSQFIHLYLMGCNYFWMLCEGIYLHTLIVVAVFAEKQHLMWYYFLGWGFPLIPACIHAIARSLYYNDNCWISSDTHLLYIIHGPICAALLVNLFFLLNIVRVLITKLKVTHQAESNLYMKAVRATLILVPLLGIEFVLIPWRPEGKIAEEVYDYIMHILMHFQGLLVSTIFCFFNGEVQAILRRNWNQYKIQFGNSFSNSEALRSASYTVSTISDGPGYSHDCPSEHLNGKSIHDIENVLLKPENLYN
T16 sequence (O60894 27-148 partner): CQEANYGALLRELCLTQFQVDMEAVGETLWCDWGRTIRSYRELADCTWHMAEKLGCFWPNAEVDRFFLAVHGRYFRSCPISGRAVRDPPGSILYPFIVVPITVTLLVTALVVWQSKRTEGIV
T11 sequence (P25100 whole entry): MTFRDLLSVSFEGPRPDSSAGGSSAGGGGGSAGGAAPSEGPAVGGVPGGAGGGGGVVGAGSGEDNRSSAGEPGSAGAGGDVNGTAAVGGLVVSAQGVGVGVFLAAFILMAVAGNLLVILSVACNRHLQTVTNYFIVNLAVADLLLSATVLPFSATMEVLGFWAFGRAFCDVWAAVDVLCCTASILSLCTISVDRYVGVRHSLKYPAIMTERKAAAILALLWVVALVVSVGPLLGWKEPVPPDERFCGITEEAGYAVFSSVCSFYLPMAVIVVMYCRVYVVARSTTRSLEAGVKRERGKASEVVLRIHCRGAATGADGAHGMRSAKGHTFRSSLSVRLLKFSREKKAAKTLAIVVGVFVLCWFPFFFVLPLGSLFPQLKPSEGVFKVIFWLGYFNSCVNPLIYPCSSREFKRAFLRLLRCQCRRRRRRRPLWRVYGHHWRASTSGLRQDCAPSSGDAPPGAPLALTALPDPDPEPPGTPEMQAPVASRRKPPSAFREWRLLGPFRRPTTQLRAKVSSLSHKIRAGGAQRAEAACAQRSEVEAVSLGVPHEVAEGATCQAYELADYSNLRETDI
T20 sequence (P28223 whole entry): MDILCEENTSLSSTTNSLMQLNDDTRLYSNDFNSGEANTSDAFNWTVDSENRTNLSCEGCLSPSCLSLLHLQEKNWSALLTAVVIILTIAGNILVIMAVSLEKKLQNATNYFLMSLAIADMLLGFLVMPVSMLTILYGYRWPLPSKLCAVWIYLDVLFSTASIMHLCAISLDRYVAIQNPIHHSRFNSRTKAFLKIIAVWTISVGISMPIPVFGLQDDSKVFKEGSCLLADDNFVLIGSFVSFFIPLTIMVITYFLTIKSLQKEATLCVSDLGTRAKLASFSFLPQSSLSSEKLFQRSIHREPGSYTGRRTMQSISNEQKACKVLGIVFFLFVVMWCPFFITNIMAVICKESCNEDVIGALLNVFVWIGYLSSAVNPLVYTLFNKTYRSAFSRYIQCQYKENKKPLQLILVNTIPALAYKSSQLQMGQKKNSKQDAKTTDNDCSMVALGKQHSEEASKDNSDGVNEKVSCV
T13 sequence (P29274 whole entry): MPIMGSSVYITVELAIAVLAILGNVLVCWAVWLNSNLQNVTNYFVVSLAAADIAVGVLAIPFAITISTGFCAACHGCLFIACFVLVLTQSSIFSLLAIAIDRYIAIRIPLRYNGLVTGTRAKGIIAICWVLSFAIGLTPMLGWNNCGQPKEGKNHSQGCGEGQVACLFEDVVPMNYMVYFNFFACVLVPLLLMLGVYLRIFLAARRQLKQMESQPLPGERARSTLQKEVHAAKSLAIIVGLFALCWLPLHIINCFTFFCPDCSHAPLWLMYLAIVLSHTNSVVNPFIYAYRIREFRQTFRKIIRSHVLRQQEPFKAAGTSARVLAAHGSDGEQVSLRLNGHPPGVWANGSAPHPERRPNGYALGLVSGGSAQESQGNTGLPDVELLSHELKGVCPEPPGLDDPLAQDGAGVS
T6 sequence (P30939 whole entry): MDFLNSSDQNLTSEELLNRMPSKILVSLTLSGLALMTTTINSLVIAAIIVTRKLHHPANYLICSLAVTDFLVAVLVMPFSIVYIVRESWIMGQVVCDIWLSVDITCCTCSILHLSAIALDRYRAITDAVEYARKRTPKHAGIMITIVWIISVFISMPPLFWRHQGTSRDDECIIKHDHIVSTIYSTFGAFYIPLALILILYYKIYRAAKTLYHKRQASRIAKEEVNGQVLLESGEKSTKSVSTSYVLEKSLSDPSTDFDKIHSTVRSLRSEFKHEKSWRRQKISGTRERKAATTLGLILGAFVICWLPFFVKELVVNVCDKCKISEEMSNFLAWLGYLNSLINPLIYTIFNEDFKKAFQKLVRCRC

CC[C@@H](CO)NC(=O)[C@@H]1C=C2c3cccc4[nH]c(C(F)(F)F)c(c34)C[C@H]2N(C)C1 [2-CF3-sergide]
Activity (Agonism: EC50; Antagonism: IC50), Somatostatin (SST1~SSTS) (Somatostatin (SST1~SSTS)): Inactive
Activity (Agonism: EC50; Antagonism: IC50), Opioid (OP1/OP2/OP3) (Opioid (OP1/OP2/OP3)): Inactive
EC50 (Serotonin 5-HT1A; CHO-K1 human receptor membranes, agonist mode, read-out: Activity (Agonism: EC50), 5-HT1A): 258 nM
Receptor activity on the 5-HT1A receptor (in words) (Serotonin 5-HT1A; summary of Table 2): agonistic activity
EC50 (Serotonin 5-HT1B): 128 nM
IC50 (Adrenergic α1A): > 10000 nM
IC50 (Adrenergic α2B): > 1000 nM
EC50 (mGlu7): 46.5 nM
EC50 (Serotonin 5-HT1F): 254 nM
IC50 (Adrenergic α2C): > 10000 nM
IC50 (Adrenergic α2A): > 10000 nM
IC50 (Serotonin 5-HT2B; CHO-K1 mAeq Gα16, human receptor, antagonist mode, read-out: Activity (Antagonism: IC50), 5-HT2B): 42 nM
Receptor activity at the 5-HT2B receptor (in words) (Serotonin 5-HT2B; summary of Table 2): full receptor antagonism
EC50 (Serotonin 5-HT1D): 98 nM
IC50 (Adrenergic α1D): 38 nM
IC50 (Adrenergic α1B): > 1000 nM
IC50 (Neurokinin (NK1/NK2/NK3)): > 1000 nM
Activity (Agonism: EC50; Antagonism: IC50), Adenosine A2a (Adenosine A2a): Inactive
IC50 (Dopamine D3; CHO-K1 human receptor membranes, antagonist mode, read-out: Activity (Antagonism: IC50), D3): > 1000 nM
Receptor activity at the D3 dopaminergic receptor (in words) (Dopamine D3; summary of Table 2): receptor antagonism
IC50 (Serotonin 5-HT3): > 1000 nM
Activity (Agonism: EC50; Antagonism: IC50), Calcitonin (CGRP) (Calcitonin (CGRP)): Inactive
EC50 (Dopamine D1): 257 nM
Activity (Agonism: EC50; Antagonism: IC50), Orexin (OX1/OX2) (Orexin (OX1/OX2)): Inactive
IC50 (Dopamine D4; CHO-K1 human receptor membranes, antagonist mode, read-out: Activity (Antagonism: IC50), D4): > 1000 nM
Receptor activity at the D4 dopaminergic receptor (in words) (Dopamine D4; summary of Table 2): receptor antagonism
Activity (Agonism: EC50; Antagonism: IC50), Cholecystokinin (CCK1/CCK2) [1]: Inactive
IC50 (Dopamine D2L; CHO-K1 human receptor membranes, antagonist mode, read-out: Activity (Antagonism: IC50), D2L): > 1000 nM
Receptor activity at the D2L dopaminergic receptor (in words) (Dopamine D2L; summary of Table 2): receptor antagonism
Activity (Agonism: EC50; Antagonism: IC50), VIP/PACAP (PAC1/VPAC/VPAC2) [2]: Inactive
Activity (Agonism: EC50; Antagonism: IC50), Calcitonin (AM1/AM2) (Calcitonin (AM1/AM2)): Inactive
EC50 (Serotonin 5-HT2A): 1100 nM
